Test results taken from patent US8772495B2, “5-lipoxygenase-activating protein inhibitor” (Panmira Pharmaceuticals, LLC, priority 2008, dated 2014).
“Also recorded” adds a separate entry of the source. Read-outs that look alike come from different tables or passages of the source.

What was measured:
[1] = Liquid formulations for oral solutions/suspensions; type: physicochemical; details: below pH values of about 9-10
Protocol: Values of pH reported were estimated based on pH indicating strips. […] Accordingly, provided in certain embodiments herein were formulations having a pH above about 9, above about 10 or of about 10. In certain embodiments, the formulation was buffered at a pH of about 10. All formulations prepared were sonicated for about 10 minutes.

[2] = tested on: whole blood ionophore-stimulated leukotriene LTB4; test: Phase I study: ex vivo ionophore-stimulated LTB4; type: in vivo, human; details: in vivo
From the text: Study Design: Single center, double-blind, randomized, placebo-controlled, single ascending dose followed by multiple ascending dose study.
Sample Size: (1) Single Dose Phase: eight (8) subjects (6 active, 2 placebo) per dose level; up to 5 dose levels are planned (a total of 40 subjects if all 5 dose levels are completed); and (2) Multiple Dose Phase: eight (8) subjects (6 active, 2 placebo) per dose level; up to 4 dose levels are planned (a total of 32 subjects if all 4 dose levels are completed).
Formulations: Compound 2 was supplied as an oral powder for reconstitution. Placebo solution matched. […] The placebo differed only in the absence of the active.
The following dosing cohorts were used:
Routes of Administration: All doses were administered orally with approximately 100 mL of water rinse. Subjects were fasted for at least 8 hours prior to dosing and for 2 hours after dosing. For BID dosing in the Multiple Dose Phase, when applicable, subjects were fasted for at least 2 hours prior to the second daily dose.
Plasma concentrations of Compound 1 were determined using a validated LC/MS method. Whole blood ionophore-stimulated leukotriene LTB4 and urinary LTE4 production were assayed by ELISA and mass spectrometry, respectively.
Analysis of Samples: Concentrations of Compound 1 was determined in plasma samples collected from subjects. Similarly, concentrations of LTB4 in plasma and urinary LTE4 were determined in blood and urine samples collected.

CYP2C19 = CYP2C19 (Homo sapiens (Human), UniProt P33261); test: Extracellular cytochrome P450 inhibition (microsomes); type: in vitro ADME; details: mephenytoin 4′-hydroxylation
From the text: Final solvent concentrations were 1% (v/v) or less.

[3] = Oral dosing of amorphous phase A and Form C in rats; type: in vivo
[4] = Thermodynamic aqueous solubility by HPLC; type: physicochemical; details: water, 25° C.
Protocol: The suspension was equilibrated at 25° C. for 24 hours then the pH was measured. The suspension was then filtered through a glass fibre C filter into a 96 well plate. […] Quantitation was by HPLC with reference to a standard solution of approximately 0.1 mg.ml^−1 in DMSO. Different volumes of the standard, diluted and undiluted sample solutions were injected.
Analysis was performed on an Agilent HP1100 series system equipped with a diode array detector and using ChemStation software vB.02.01-SR1.

[5] = Physical and chemical stability of polymorphs (storage, humidity chamber); type: physicochemical; details: for XRPD pattern after one week stability study: 40° C. and 75% RH, one week in humidity chamber
[6] = Gravimetric vapour sorption (GVS); type: physicochemical; details: for XRPD pattern after the GVS experiment: after full sorption/desorption cycle; for water adsorbed (GVS): at 90% RH
Protocol: Sorption isotherms were obtained using a Hiden IGASorp moisture sorption analyser, controlled by CFRSorp software. The sample temperature was maintained at 25° C. by a Huber re-circulating water bath. The humidity was controlled by mixing streams of dry and wet nitrogen, with a total flow rate of 250 ml. min^−1. The relative humidity was measured by a calibrated Vaisala RH probe (dynamic range of 0-95% RH), located near the sample. The weight change, (mass relaxation) of the sample as a function of % RH was constantly monitored by the microbalance (accuracy ±0.001 mg).
Typically 10-20 mg of sample was placed in a tared mesh stainless steel basket under ambient conditions. The sample was loaded and unloaded at 40% RH and 25° C. (typical room conditions).
A moisture sorption isotherm was performed as outlined below (2 scans giving 1 complete cycle). The standard isotherm was performed at 25° C. at 10% RH intervals over a 0-90% RH range.
The software uses a least squares minimisation procedure together with a model of the mass relaxation, to predict an asymptotic value. The measured mass relaxation value must be within 5% of that predicted by the software, before the next % RH value is selected. The minimum equilibration time was set to 1 hour and the maximum to 4 hours.

[7] = female, CD-1, mouse, in vivo, po, 250 mg/kg/day, 4 days
Protocol: Twenty-four hours following the final drug administration mice were placed into an enclosed Plexiglas chamber and exposed to CO2 for a period of 30-60 seconds or until breathing ceased. They were then removed subject to cervical dislocation and blood taken via a cardiac puncture. Mice were next placed in a supine position and a midline incision made. All organs were inspected and the livers removed by careful dissection. Liver weights were recorded as well as any gross abnormalities.

CYP2C19, sequence (P33261 whole entry): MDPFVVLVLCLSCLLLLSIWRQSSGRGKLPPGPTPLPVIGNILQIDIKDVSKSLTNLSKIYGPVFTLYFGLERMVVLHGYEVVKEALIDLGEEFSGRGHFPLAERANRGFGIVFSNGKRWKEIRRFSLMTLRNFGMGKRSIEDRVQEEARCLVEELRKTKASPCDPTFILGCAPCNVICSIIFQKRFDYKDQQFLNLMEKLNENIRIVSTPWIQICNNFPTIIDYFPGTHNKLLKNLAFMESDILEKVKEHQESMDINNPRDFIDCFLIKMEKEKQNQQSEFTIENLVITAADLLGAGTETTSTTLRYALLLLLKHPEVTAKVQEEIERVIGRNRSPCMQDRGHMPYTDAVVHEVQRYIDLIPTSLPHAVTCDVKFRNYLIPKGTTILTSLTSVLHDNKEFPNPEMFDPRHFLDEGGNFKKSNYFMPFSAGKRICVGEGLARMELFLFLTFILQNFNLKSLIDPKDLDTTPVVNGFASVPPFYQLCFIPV

## CCOc1ccc(-c2ccc(Cn3c(CC(C)(C)C(=O)O)c(SC(C)(C)C)c4cc(OCc5ccc(C)cn5)ccc43)cc2)cn1 [Compound 1, 3-[3-(tert-butylsulfanyl)-1-[4-(6-ethoxy-pyridin-3-yl)benzyl]-5-(5-methyl-pyridin-2-yl-methoxy)-1H-indol-2-yl]-2,2-dimethylpropanoic acid]
[1]
  solubility in certain solvent systems: sparingly soluble
[2]
  plasma concentration at complete inhibition of ionophore-stimulated LTB4 production: 1000 to 1500 ng/mL

## CCC1(c2ccccc2)C(=O)NC(=O)N(Cc2ccccc2)C1=O (single isomer, unassigned; (-)) [(−)-N-3-benzyl-phenobarbital, reference compound]
CYP2C19
  IC50: 2.8 µM

## CCOc1ccc(-c2ccc(Cn3c(CC(C)(C)C(=O)[O-])c(SC(C)(C)C)c4cc(OCc5ccc(C)cn5)ccc43)cc2)cn1.[Na+] [Amorphous Phase A, sodium 3-[3-(tert-butylsulfanyl)-1-[4-(6-ethoxy-pyridin-3-yl)benzyl]-5-(5-methyl-pyridin-2-yl-methoxy)-1H-indol-2-yl]-2,2-dimethylpropionate]
[3]
  plasma exposures after oral dosing: equivalent plasma exposures
[4]; 24 hours
  Concentration of filtrate: >10 mg/mL of free base
[4]; listed as Compound 2 Phase A
  Appearance of mixture after equilibration for 24 hours: Suspension
  pH of unfiltered saturated solution: 9.14
[5]
  XRPD pattern after one week stability study: remains amorphous
[5]; listed as Amphorous Phase A
  physical and chemical stability: chemically stable
[6]
  hygroscopicity: hygroscopic
  XRPD pattern after the GVS experiment: No changes were observed
  water adsorbed (GVS): more than 22%
[6]; listed as Amphorous Phase A
  water adsorbed (GVS): more than 20%
  hygroscopicity: hygroscopic

## CC(c1cc2ccccc2s1)N(O)C(N)=O (centres unmarked) [Zileuton, zileuton, reference compound]
[7]
  Liver weight: 1.6 ± 0.2
  Liver weight (% body weight): 5.5 % body weight
  liver weight change as compared to vehicle control: 31.0%

## CCOc1ccc(-c2ccc(Cn3c(CC(C)(C)C(=O)[O-])c(SC(C)(C)C)c4cc(OCc5ccc(C)cn5)ccc43)cc2)cn1.[Na+] [Solvated Form B, sodium 3-[3-(tert-butylsulfanyl)-1-[4-(6-ethoxy-pyridin-3-yl)benzyl]-5-(5-methyl-pyridin-2-yl-methoxy)-1H-indol-2-yl]-2,2-dimethylpropionate]
[5]
  physical and chemical stability: physically and chemically stable
[6]
  hygroscopicity: hygroscopic
  water adsorbed (GVS): more than 30%
[6]; listed as Polymorph Form B
  XRPD pattern after the GVS experiment: becomes almost totally amorphous
  water adsorbed (GVS): more than 30%
  hygroscopicity: hygroscopic

## CCOc1ccc(-c2ccc(Cn3c(CC(C)(C)C(=O)[O-])c(SC(C)(C)C)c4cc(OCc5ccc(C)cn5)ccc43)cc2)cn1.[Na+] [Form C, sodium 3-[3-(tert-butylsulfanyl)-1-[4-(6-ethoxy-pyridin-3-yl)benzyl]-5-(5-methyl-pyridin-2-yl-methoxy)-1H-indol-2-yl]-2,2-dimethylpropionate]
[3]
  plasma exposures after oral dosing: equivalent plasma exposures
[5]
  physical and chemical stability: physically and chemically stable
[5]; 5° C., 25° C./60% RH and 40° C./75% RH for at least one month
  physical and chemical stability: physically and chemically stable
[5]; listed as polymorph Form C
  XRPD pattern after one week stability study: remains unchanged
[6]
  hygroscopicity: non-hygroscopic; also recorded: nonhygroscopic
  water adsorbed (GVS): < 9%
[6]; listed as polymorph Form C
  XRPD pattern after the GVS experiment: No changes were observed
  water adsorbed (GVS): 8.2%
  hygroscopicity: significantly less hygroscopic than the amorphous material
